Article PMC3624796 (Journal of Medicinal Chemistry, 2013)

Target: T1, T4 lysozyme L99A/M102H† (Enterobacteria phage T4, UniProt P00720, C54T/C97A/E108V/L99A/M102H/N144D/S117V/S38D/T142C/T21C)
Type: binding
Conditions: not given

Q: With `O=[N+]([O-])c1ccc(O)cc1` [4-nitrophenol] as the compound, how does the “interaction with His102 stronger than with Gln102 (double perturbation analysis)” value read?
A: 2.4 kcal/mol

Test system: T4 lysozyme L99A
Conditions: cited from earlier work

Q: Which “binding to L99A cavity” value does the source give for `Oc1ccccc1` [phenol] here?
A: does not measurably bind

Target: T1, T4 lysozyme L99A/M102H†
Type: binding
Conditions: not given
Remark: another data set of the same source

Q: Which “ΔGmelt (change of stability on ligand binding, ΔTm × ΔS)” value does the source give for `O=[N+]([O-])c1ccc(O)cc1` [4-nitrophenol] here?
A: 1.4 kcal/mol

Q: Which “ΔGmelt (change of stability on ligand binding, ΔTm × ΔS)” value does the source give for `N#Cc1cc(Br)ccc1O` [5-bromo-2-hydroxybenzonitrile] here?
A: 0.6 kcal/mol

Q: With `C=CSc1ccccc1` [phenyl vinyl sulfide] as the compound, how does the “ΔGmelt (change of stability on ligand binding, ΔTm × ΔS)” value read?
A: 0.25 kcal/mol

Target: T1, T4 lysozyme L99A/M102H†
Type: binding
Conditions: crystal structure

Q: With `C#CC(O)c1ccccc1` (stereo not drawn) [1-phenyl-2-propyn-1-ol, 1-phenyl-2-propyn-1-ol] as the compound, how does the “hydrogen bond distance between ligand and His102” value read?
A: 2.77 Å

Q: For `C=CCc1ccccc1O` [2-allyl phenol], which “hydrogen bond distance between ligand and His102” value is on record?
A: 3.00 Å

Q: For `Nc1ncc(Cl)s1` [2-amino-5-chloro thiazole], which “hydrogen bond distance between ligand and His102” value is on record?
A: 2.89 Å

Q: For `O=Cc1cc(O)ccc1Br` [2-bromo-5-hydroxybenzaldehyde], which “hydrogen bond distance between ligand and His102” value is on record?
A: 2.50 Å

Q: Which “hydrogen bond distance between ligand and His102” value does the source give for `Cc1cc(C(F)(F)F)n[nH]1` [3-methyl-5-(trifluoromethyl) pyrazole] here?
A: 2.90 Å

Q: For `Brc1c[nH]cn1` [4-bromoimidazole], which “hydrogen bond distance between ligand and His102” value is on record?
A: 2.93 Å

Q: Which “hydrogen bond distance between ligand and His102” value does the source give for `FC(F)(F)c1c[nH]cn1` [4-trifluoromethyl imidazole] here?
A: 2.85 Å
